Assay results reported in patent publication US12018021B2 (UCB Biopharma SRL, priority 2018, dated 2024).

Molecular target: IgE-Tb / sFcεRIα-Y131A-AF488 (Homo sapiens, UniProt P01854, N146Q/N252Q)
Test: IgE-Tb / sFcεRIα-Y131A-AF488 FRET assay (protocol for examples 234 to 501)
Type: binding
Conditions: examples 234 to 501: compound with IgE-Tb 30 minutes before sFcεRIα-Y131A-AF488, incubated 18 hours at room temperature; read-out: Y131A FRET IC50 range
In short: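 Read-out is the 520/490 nm emission ratio (337 nm excitation) after 18 h at room temperature, background subtracted, fitted four-parameter for IC50. Final reagents: 5 nM IgE-Tb, preincubated 30 min with compound (top typically 10 μM, 2% DMSO, 3-fold 10-point), plus 25 nM sFcεRIα-Y131A-AF488.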

Chain of IgE-Tb / sFcεRIα-Y131A-AF488 (P01854 whole entry N146Q/N252Q): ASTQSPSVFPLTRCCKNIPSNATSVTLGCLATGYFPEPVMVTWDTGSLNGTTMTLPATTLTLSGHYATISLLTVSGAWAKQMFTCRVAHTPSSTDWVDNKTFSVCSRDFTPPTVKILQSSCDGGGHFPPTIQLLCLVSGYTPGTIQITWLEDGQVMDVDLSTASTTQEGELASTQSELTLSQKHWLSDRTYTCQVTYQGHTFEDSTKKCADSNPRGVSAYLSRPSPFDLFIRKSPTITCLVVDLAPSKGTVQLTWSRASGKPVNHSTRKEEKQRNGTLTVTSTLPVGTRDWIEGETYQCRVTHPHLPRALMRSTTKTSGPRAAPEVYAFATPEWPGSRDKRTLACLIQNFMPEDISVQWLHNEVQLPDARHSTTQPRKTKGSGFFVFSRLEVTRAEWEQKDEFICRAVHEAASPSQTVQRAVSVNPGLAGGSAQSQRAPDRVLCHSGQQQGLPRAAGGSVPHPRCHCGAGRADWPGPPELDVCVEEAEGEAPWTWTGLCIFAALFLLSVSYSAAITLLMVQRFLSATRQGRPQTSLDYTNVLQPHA

**Q.** With `CC1CC(NC(=O)c2c(NC(=O)C3CC3)sc3c2C[C@@H](n2cnnc2Nc2cc(OC(F)F)nn2C)CC3)C1` (stereo partly drawn) [Example 448, (5S)-2-(cyclopropanecarbonylamino)-5-[3-[[5-(difluoromethoxy)-2-methylpyrazol-3-yl]amino]-1,2,4-triazol-4-yl]-N-(3-methylcyclobutyl)-4,5,6,7-tetrahydro-1-benzothiophene-3-carboxamide] as the compound, how does the IC50 read?
**A.** < 1000 nM

**Q.** How did the IC50 turn out when `Cn1nc(OC(F)F)cc1Nc1nncn1[C@H]1CCc2sc(NC(=O)C3CC3)c(C(=O)N[C@H]3C[C@H](F)C3)c2C1` [Example 449, (5S)-2-(cyclopropanecarbonylamino)-5-[3-[[5-(difluoromethoxy)-2-methylpyrazol-3-yl]amino]-1,2,4-triazol-4-yl]-N-(trans-3-fluorocyclobutyl)-4,5,6,7-tetrahydro-1-benzothiophene-3-carboxamide] was run?
**A.** < 1000 nM

**Q.** With `Cn1nc(OC(F)F)cc1Nc1nncn1[C@H]1CCc2sc(NC(=O)C3CC3)c(C(=O)NC3CC(F)(F)C3)c2C1` [Example 450, (5S)-2-(cyclopropanecarbonylamino)-N-(3,3-difluorocyclobutyl)-5-[3-[[5-(difluoromethoxy)-2-methylpyrazol-3-yl]amino]-1,2,4-triazol-4-yl]-4,5,6,7-tetrahydro-1-benzothiophene-3-carboxamide] as the compound, how does the IC50 read?
**A.** < 1000 nM

**Q.** `Cn1nc(OC(F)F)cc1Nc1nncn1[C@H]1CCc2sc(NC(=O)C3CC3)c(C(=O)NCC3CCC3(F)F)c2C1` (stereo partly drawn) [Example 451, (5S)-2-(cyclopropanecarbonylamino)-N-[(2,2-difluorocyclobutyl)methyl]-5-[3-[[5-(difluoromethoxy)-2-methylpyrazol-3-yl]amino]-1,2,4-triazol-4-yl]-4,5,6,7-tetrahydro-1-benzothiophene-3-carboxamide] was tested. Which IC50 did it give?
**A.** < 1000 nM

**Q.** Which IC50 does the source give for `CC1CC1CNC(=O)c1c(NC(=O)C2CC2)sc2c1C[C@@H](n1cnnc1Nc1cc(OC(F)F)nn1C)CC2` (stereo partly drawn) [Example 453, (5S)-2-(cyclopropanecarbonylamino)-5-[3-[[5-(difluoromethoxy)-2-methylpyrazol-3-yl]amino]-1,2,4-triazol-4-yl]-N-[(2-methylcyclopropyl)methyl]-4,5,6,7-tetrahydro-1-benzothiophene-3-carboxamide] here?
**A.** < 1000 nM

**Q.** For `Cn1nc(OC(F)F)cc1Nc1nncn1[C@H]1CCc2sc(NC(=O)C3CC3)c(C(=O)NC[C@H]3C[C@H](F)C3)c2C1` [Example 456, (5S)-2-(cyclopropanecarbonylamino)-5-[3-[[5-(difluoromethoxy)-2-methylpyrazol-3-yl]amino]-1,2,4-triazol-4-yl]-N-[trans-(3-fluorocyclobutyl)methyl]-4,5,6,7-tetrahydro-1-benzothiophene-3-carboxamide], which IC50 is on record?
**A.** < 1000 nM

**Q.** For `Cn1nc(OC(F)F)cc1Nc1nncn1[C@H]1CCc2sc(NC(=O)C3CC3)c(C(=O)NCC3CCC3F)c2C1` (stereo partly drawn) [Example 457, (5S)-2-(cyclopropanecarbonylamino)-5-[3-[[5-(difluoromethoxy)-2-methylpyrazol-3-yl]amino]-1,2,4-triazol-4-yl]-N-[(2-fluorocyclobutyl)methyl]-4,5,6,7-tetrahydro-1-benzothiophene-3-carboxamide], which IC50 is on record?
**A.** < 1000 nM

**Q.** How did the IC50 turn out when `Cn1nc(OC(F)F)cc1Nc1nncn1[C@H]1CCc2sc(NC(=O)C3CC3)c(C(=O)NC[C@H]3C[C@H]3F)c2C1` [Example 461, (5S)-2-(cyclopropanecarbonylamino)-5-[3-[[5-(difluoromethoxy)-2-methylpyrazol-3-yl]amino]-1,2,4-triazol-4-yl]-N-[[(1R,2R)-2-fluorocyclopropyl]methyl]-4,5,6,7-tetrahydro-1-benzothiophene-3-carboxamide] was run?
**A.** < 1000 nM

**Q.** Which IC50 does the source give for `Cn1nc(OC(F)F)cc1Nc1nncn1[C@H]1CCc2sc(NC(=O)C3CC3)c(C(=O)NC[C@H]3C[C@@H]3F)c2C1` [Example 462, (5S)-2-(cyclopropanecarbonylamino)-5-[3-[[5-(difluoromethoxy)-2-methylpyrazol-3-yl]amino]-1,2,4-triazol-4-yl]-N-[[(1R,2S)-2-fluorocyclopropyl]methyl]-4,5,6,7-tetrahydro-1-benzothiophene-3-carboxamide] here?
**A.** < 1000 nM

**Q.** How did the IC50 turn out when `COc1cc(Nc2nncn2[C@H]2CCc3sc(NC(=O)[C@H]4C[C@@H]4C)c(C(=O)NC[C@H]4C[C@@H]4F)c3C2)n(C)n1` [Example 466, (5S)—N-[[(1R,2S)-2-fluorocyclopropyl]methyl]-5-[3-[(5-methoxy-2-methylpyrazol-3-yl)amino]-1,2,4-triazol-4-yl]-2-[[(1S,2S)-2-methylcyclopropanecarbonyl]amino]-4,5,6,7-tetrahydro-1-benzothiophene-3-carboxamide] was run?
**A.** < 1000 nM

**Q.** `COc1cc(Nc2nncn2[C@H]2CCc3sc(NC(=O)[C@H]4C[C@@H]4C)c(C(=O)NC[C@H]4C[C@H](F)C4)c3C2)n(C)n1` [Example 467, (5S)—N-[trans-(3-fluorocyclobutyl)methyl]-5-[3-[(5-methoxy-2-methylpyrazol-3-yl)amino]-1,2,4-triazol-4-yl]-2-[[(1S,2S)-2-methylcyclopropanecarbonyl]amino]-4,5,6,7-tetrahydro-1-benzothiophene-3-carboxamide] was tested. Which IC50 did it give?
**A.** < 1000 nM

**Q.** With `COc1cc(Nc2nncn2[C@H]2CCc3sc(NC(=O)[C@H]4C[C@@H]4C)c(C(=O)NCC4CC4)c3C2)n(C)n1` [Example 468, (5S)—N-(cyclopropylmethyl)-5-[3-[(5-methoxy-2-methylpyrazol-3-yl)amino]-1,2,4-triazol-4-yl]-2-[[(1S,2S)-2-methylcyclopropanecarbonyl]amino]-4,5,6,7-tetrahydro-1-benzothiophene-3-carboxamide] as the compound, how does the IC50 read?
**A.** < 1000 nM

**Q.** With `Cn1nc(C(F)F)cc1Nc1nncn1[C@H]1CCc2sc(NC(=O)[C@H]3C[C@H](F)C3)c(C(=O)NC[C@H]3C[C@@H]3F)c2C1` [Example 471, (5S)-5-[3-[[5-(difluoromethyl)-2-methylpyrazol-3-yl]amino]-1,2,4-triazol-4-yl]-2-[trans-(3-fluorocyclobutanecarbonyl)amino]-N-[[(1R,2S)-2-fluorocyclopropyl]methyl]-4,5,6,7-tetrahydro-1-benzothiophene-3-carboxamide] as the compound, how does the IC50 read?
**A.** < 1000 nM

**Q.** For `Cn1nc(C(F)F)cc1Nc1nncn1[C@H]1CCc2sc(NC(=O)[C@H]3C[C@H](F)C3)c(C(=O)NCC3CCC3)c2C1` [Example 473, (5S)—N-(cyclobutylmethyl)-5-[3-[[5-(difluoromethyl)-2-methylpyrazol-3-yl]amino]-1,2,4-triazol-4-yl]-2-[trans-(3-fluorocyclobutanecarbonyl)amino]-4,5,6,7-tetrahydro-1-benzothiophene-3-carboxamide], which IC50 is on record?
**A.** < 1000 nM

**Q.** `Cn1nc(C(F)F)cc1Nc1nncn1[C@H]1CCc2sc(NC(=O)C3CC(F)(F)C3)c(C(=O)NC[C@H]3C[C@H]3F)c2C1` [Example 479, (5S)-2-[(3,3-difluorocyclobutanecarbonyl)amino]-5-[3-[[5-(difluoromethyl)-2-methylpyrazol-3-yl]amino]-1,2,4-triazol-4-yl]-N-[[(1R,2R)-2-fluorocyclopropyl]methyl]-4,5,6,7-tetrahydro-1-benzothiophene-3-carboxamide] was tested. Which IC50 did it give?
**A.** < 1000 nM

**Q.** How did the IC50 turn out when `Cn1nc(C(F)F)cc1Nc1nncn1[C@H]1CCc2sc(NC(=O)C3CC(F)(F)C3)c(C(=O)N[C@H]3C[C@H](F)C3)c2C1` [Example 480, (5S)-2-[(3,3-difluorocyclobutanecarbonyl)amino]-5-[3-[[5-(difluoromethyl)-2-methylpyrazol-3-yl]amino]-1,2,4-triazol-4-yl]-N-(trans-3-fluorocyclobutyl)-4,5,6,7-tetrahydro-1-benzothiophene-3-carboxamide] was run?
**A.** < 1000 nM

**Q.** `Cn1nc(OC(F)F)cc1Nc1nncn1[C@H]1CCc2sc(NC(=O)[C@H]3C[C@H](F)C3)c(C(=O)NC[C@@H]3C[C@@H]3F)c2C1` [Example 481, (5S)-5-[3-[[5-(difluoromethoxy)-2-methylpyrazol-3-yl]amino]-1,2,4-triazol-4-yl]-2-[trans-(3-fluorocyclobutanecarbonyl)amino]-N-[[(1S,2S)-2-fluorocyclopropyl]methyl]-4,5,6,7-tetrahydro-1-benzothiophene-3-carboxamide] was tested. Which IC50 did it give?
**A.** < 1000 nM

**Q.** `Cn1nc(OC(F)F)cc1Nc1nncn1[C@H]1CCc2sc(NC(=O)[C@H]3C[C@H](F)C3)c(C(=O)NC[C@H]3C[C@H]3F)c2C1` [Example 482, (5S)-5-[3-[[5-(difluoromethoxy)-2-methylpyrazol-3-yl]amino]-1,2,4-triazol-4-yl]-2-[trans-(3-fluorocyclobutanecarbonyl)amino]-N-[[(1R,2R)-2-fluorocyclopropyl]methyl]-4,5,6,7-tetrahydro-1-benzothiophene-3-carboxamide] was tested. Which IC50 did it give?
**A.** < 1000 nM

**Q.** `Cn1nc(OC(F)F)cc1Nc1nncn1[C@H]1CCc2sc(NC(=O)[C@H]3C[C@H](F)C3)c(C(=O)NC[C@H]3C[C@@H]3F)c2C1` [Example 483, (5S)-5-[3-[[5-(difluoromethoxy)-2-methylpyrazol-3-yl]amino]-1,2,4-triazol-4-yl]-2-[trans-(3-fluorocyclobutanecarbonyl)amino]-N-[[(1R,2S)-2-fluorocyclopropyl]methyl]-4,5,6,7-tetrahydro-1-benzothiophene-3-carboxamide] was tested. Which IC50 did it give?
**A.** < 1000 nM

**Q.** With `Cn1nc(OC(F)F)cc1Nc1nncn1[C@H]1CCc2sc(NC(=O)[C@H]3C[C@H](F)C3)c(C(=O)NC[C@H]3C[C@H](F)C3)c2C1` [Example 486, (5S)-5-[3-[[5-(difluoromethoxy)-2-methylpyrazol-3-yl]amino]-1,2,4-triazol-4-yl]-2-[trans-(3-fluorocyclobutanecarbonyl)amino]-N-[trans-(3-fluorocyclobutyl)methyl]-4,5,6,7-tetrahydro-1-benzothiophene-3-carboxamide] as the compound, how does the IC50 read?
**A.** < 1000 nM
